Legend:
[1] = test system: K. pneumoniae; experiment: Kirby-Bauer disc diffusion antimicrobial susceptibility; assay type: cell-based; conditions: 100 mM, carrier water; 18-24 hours for aerobes
[2] = test system: Staphylococcus aureus ATCC 33591 (MRSA) biofilm; experiment: Single spray on biofilm on glass slides, time study, Example 8; conditions: for CFUs after spray: 30% PCA spray
[3] = test system: Legionella 43662; assay type: cell-based
[4] = Amount of PCA that can be dissolved; assay type: physicochemical
Description: For instance the dose used on an open rodent taped stripped skin would be conditioned by the wound's tolerance of the vehicle which in this case would be water, normal saline or like. The amount of PCA for instance that can be dissolved in water is 1.24 grams per 100 ml. In the rodent the effective dose of C-3-G and PCA were expressed in […] (mM) as 25 to 200 mM dose. Conversion factors are necessary to make comparisons to larger doses used in other applications. 78 mM (mmole/L) PCA would be 12.021 g PCA per Liter. Therefore 25 mM/L would be 3.852 grams per liter or […]. The fluid applied was […] or 0.1 milliliter. Therefore, for example, the dose of PCA that was bactericidal on Pseudomonas aeruginosa on taped stripped rodent skin was 0.00038 grams. When treating intact normal human skin as in the Loma Linda Medical School testing, it was shown the 1.24 gram in 100 ml of water would only decrease the number of colonies of Propionibacterium acnes. Note that there was no skin penetration properties to water by this method. The increase of PCA concentration was possible to as much as 17% when in composition of matter was 70% isopropyl alcohol with propylene glycol and essences of peppermint oil. This composition had skin penetration properties. However the amount of liquid applied was no more than one milliliter by cotton swab. Therefore the topical dose on intact human skin was […] (estimated). This is many times that required for traumatized taped stripped skin.
For compositions applied to the skin or a bandage the PCA crystals need to be dissolved in a liquid. […] The use of isopropyl alcohol in the combination was not an obvious choice because isopropyl alcohol alone only is marginally effective in killing bacteria. So even after using isopropyl alcohol to dissolve the PCA, the inventor discovered that even at 10% PCA in isopropyl alcohol, the composition was only marginally effective. […]

[5] = test system: Pseudomonas Aeruginosa ATCC 700888 biofilm; experiment: Single spray on biofilm on glass slides, time study, Example 8; conditions: for log reduction: 30% PCA spray in isopropyl alcohol, vs positive control slides
[6] = test system: E. coli, ATTC 8739 and ATCC 43895; experiment: Kirby-Bauer disc diffusion antimicrobial susceptibility; assay type: cell-based; conditions: 100 mM, carrier water; 18-24 hours for aerobes
[7] = test system: normal human skin bacterial resident flora; experiment: Human skin disinfection study, Loma Linda, Phase IV; assay type: in vivo; conditions: for no growth cultures results after treatment, anaerobic / no growth cultures results after treatment, Aerobic: Phase IV, two applications
Description: Method: The variations in materials and methods in this phase were based upon results of the previous phases. They included changes in the solution, the method of dissolving the PCA, the timing of skin application, plus using two applications to simulate the present day recommendations of surgical skin preparation.
The method placed the 20 grams of ground PCA in sterile container with volume markers. Then added 85 ml of 91% isopropyl alcohol; warm and shake. […] A repeat of warming and shaking was instituted. The container was filled to 100 ml, warm and repeated the shaking. It took perhaps 15 to 20 minutes for the ground crystals to dissolve.
An area was marked at 4 corners on the anterior axilla area of both shoulders. There was a topical reagent application. After 5 minutes a second application was made. The control group was again Chloroprep®. The experimental side was applied with manual motion and pressure on a sterile sponge soaked with the PCA solution. The subjects put hands on head for 10 minutes and then 10 minutes of moving arms around. Culture #1 was harvested with scraping at 20 minutes post 2nd application. Subjects rested their arms at side for 40 minutes which is 60 minutes after the first application and 40 minutes after culture #1. A second culture is taken with scraping. The post application cultures were taken of each shoulder skin area with scraping with back side of a sterile surgical knife blade to maximize the yield.

[8] = test system: Staphylococcus epidermidis ATCC 51625 (MRSE); experiment: In vitro antimicrobial test (FIG. 32); assay type: cell-based
[9] = test system: Pseudomonas aeruginosa ATCC9027; experiment: Paper disc test with water or propylene glycol, Example 10

In the case of `O=C(O)c1ccc(O)c(O)c1` [PCA, Protocatechuic acid], the “effectiveness against K. pneumoniae” value [1] is reported as “effective”, the CFUs after spray ([2]; after 30 minutes, from 60 million CFUs) is reported as 3 million and the CFUs after spray ([2]; after 60 minutes, from 25 million) is reported as 2 million CFUs. For the same compound, the biofilms killed ([2]; […], 30 minutes) was 90%, the “effectiveness against Legionella 43662” value [3] was “effective” and the “concentration possible in solution” value ([4]; 70% isopropyl alcohol with propylene glycol and essences of peppermint oil) was no more than 17%. The “amount that can be dissolved in water” value ([4]; Water) was 1.24 grams per 100 ml, the “concentration achieved when dissolving in water” value ([4]; Water) was no more than 1.24% and the log reduction ([5]; after 30 minutes) was 3.3 log. The log reduction ([5]; after 60 minutes) was 2.2 log, the “reduction in the number colony forming units” value ([5]; 30% PCA spray, after 60 minutes) was 99.9% and the “effectiveness against E. coli” value [6] was “effective”. For the same compound, the “removal of potential pathogens from skin” value ([7]; Phase IV solution: 20 grams of PCA, 91% isopropyl alcohol, 5 ml of essence of peppermint oil) was “effective in removing potential pathogens”, the “no growth cultures results after treatment, anaerobic” value ([7]; 20 minutes) was 4/12 and the “no growth cultures results after treatment, Aerobic” value ([7]; 20 minutes, PCA in 91% isopropyl alcohol and essential oil of peppermint) was 12/12. The “no growth cultures results after treatment, Aerobic” value ([7]; 60 minutes) was 7/12, the “no growth cultures results after treatment, anaerobic” value ([7]; 60 minutes) was 6/12 and the “effectiveness against MRSE ATCC 51625” value [8] was “effective”. For the same compound, the “inhibition of growth under the sample” value ([9]; PPG) was “I”, the zone of inhibition ([9]; PPG) was 4 mm and the “inhibition of growth under the sample” value ([9]; Water) was “I”. It also gave a zone of inhibition ([9]; Water) of 10 mm.

Source: patent publication US20200222347A1, “ANTIMICROBIALS AND METHODS OF USE THEREOF” (priority 2013, published 2020)
